From patent US11786584B2, “Peptides and combination of peptides for use in immunotherapy against prostate cancer and other cancers” (Immatics Biotechnologies GmbH, priority 2015, dated 2023) come the findings set out here.

One test has as its system CD8+ T cells. Briefly: In vitro T-cell priming assay with aAPCs loaded with peptide/MHC and anti-CD28, multimer readout. In kind it is cell-based, human. To be noted: in vitro immunogenicity; for Wells positive [%]: Table 15B; for donors / wells: Table 15A; for donors: positive donors; for wells: positive wells. An excerpt:
In order to obtain information regarding the immunogenicity of the TUMAPs of the present invention, the inventors performed investigations using an in vitro T-cell priming assay based on repeated stimulations of CD8+ T cells with artificial antigen presenting cells (aAPCs) loaded with peptide/MHC complexes and anti-CD28 antibody.
In order to perform in vitro stimulations by artificial antigen presenting cells loaded with peptide-MHC complex (pMHC) and anti-CD28 antibody, the inventors first isolated CD8+ T cells from fresh HLA-A*02 leukapheresis products via positive selection using CD8 microbeads (Miltenyi Biotec, Bergisch-Gladbach, Germany) of healthy donors obtained from the University clinics Mannheim, Germany, after informed consent.
PBMCs and isolated CD8+ lymphocytes were incubated in T-cell medium (TCM) until use consisting of RPMI-Glutamax (Invitrogen, Karlsruhe, Germany) supplemented with 10% heat inactivated human AB serum (PAN-Biotech, Aidenbach, Germany), 100 U/ml Penicillin/100 μg/ml Streptomycin (Cambrex, Cologne, Germany), 1 mM sodium pyruvate (CC Pro, Oberdorla, Germany), 20 μg/ml Gentamycin (Cambrex). 2.5 ng/ml IL7 (PromoCell, Heidelberg, Germany) and 10 U/ml IL-2 (Novartis Pharma, Nurnberg, Germany) were also added to the TCM at this step.
Generation of pMHC/anti-CD28 coated beads, T-cell stimulations and readout was performed in a highly defined in vitro system using four different pMHC molecules per stimulation condition and 8 different pMHC molecules per readout condition.
The purified co-stimulatory mouse IgG2a anti human CD28 Ab 9.3 (Jung et al., 1987) was chemically biotinylated using Sulfo-N-hydroxysuccinimidobiotin as recommended by the manufacturer (Perbio, Bonn, Germany). Beads used were 5.6 μm diameter streptavidin coated polystyrene particles (Bangs Laboratories, Illinois, USA).
800.000 beads/200 μl were coated in 96-well plates in the presence of 4×12.5 ng different biotin-pMHC, washed and 600 ng biotin anti-CD28 were added subsequently in a volume of 200 μl. Stimulations were initiated in 96-well plates by co-incubating […] CD8+ T cells with 2×10^5 washed coated beads in 200 μl TCM supplemented with 5 ng/ml IL-12 (PromoCell) for 3 days at 37° C. Half of the medium was then exchanged by fresh TCM supplemented with 80 U/ml IL-2 and incubating was continued for 4 days at 37° C. This stimulation cycle was performed for a total of three times. For the pMHC multimer readout using 8 different pMHC molecules per condition, a two-dimensional combinatorial coding approach was used as previously described (Andersen et al., 2012) with minor modifications encompassing coupling to 5 different fluorochromes. Finally, multimeric analyses were performed by staining the cells with Live/dead near IR dye (Invitrogen, Karlsruhe, Germany), CD8-FITC antibody clone SK1 (BD, Heidelberg, Germany) and fluorescent pMHC multimers. For analysis, a BD LSRII SORP cytometer equipped with appropriate lasers and filters was used. Peptide specific cells were calculated as percentage of total CD8+ cells. Evaluation of multimeric analysis was done using the FlowJo software (Tree Star, Oregon, USA). In vitro priming of specific multimer+ CD8+ lymphocytes was detected by comparing to negative control stimulations.

The target of a further test is HLA-A*02 (Homo sapiens, UniProt P04439, D140Y/D185E/D98H/E176V/E277Q/G131W/G231S/I119V/I121R/I166T/I218V/L300P/N151K/N90K/P208A/P217A/Q86G/Q94H/R138H/R169H). Briefly: MHC binding assay by UV-ligand exchange and beta2m ELISA. The settings on record: peptide exchange yield. An excerpt: (§1) Candidate peptides for T cell based therapies according to the present invention were further tested for their MHC binding capacity (affinity). The individual peptide-MHC complexes were produced by UV-ligand exchange, where a UV-sensitive peptide is cleaved upon UV-irradiation, and exchanged with the peptide of interest as analyzed. Only peptide candidates that can effectively bind and stabilize the peptide-receptive MHC molecules prevent dissociation of the MHC complexes. To determine the yield of the exchange reaction, an ELISA was performed based on the detection of the light chain (β2m) of stabilized MHC complexes. The assay was performed as generally described in Rodenko et al. (Rodenko et al., 2006).
(§2) 96 well MAXISorp plates (NUNC) were coated over night with 2 ug/ml streptavidin in PBS at room temperature, washed 4× and blocked for 1 h at 37° C. in 2% BSA containing blocking buffer. Refolded HLA-A*02:01/MLA-001 monomers served as standards, covering the range of 15-500 ng/ml. Peptide-MHC monomers of the UV-exchange reaction were diluted 100 fold in blocking buffer. Samples were incubated for 1 h at 37° C., washed four times, incubated with 2 ug/ml HRP conjugated anti-β2m for 1 h at 37° C., washed again and detected with TMB solution that is stopped with […]. Absorption was measured at 450 nm. Candidate peptides that show a high exchange yield (preferably higher than 50%, most preferred higher than 75%) are generally preferred for a generation and production of antibodies or fragments thereof, and/or T cell receptors or fragments thereof, as they show sufficient avidity to the MHC molecules and prevent dissociation of the MHC complexes.

The next test deals with HLA-A*24. The description is as above. On the set-up: species or system human. The settings on record: peptide exchange yield.
Description: as §1, §2

Turning to “1 (VTAQIGIVAV; listed as Homo sapiens) [compound 1]”, in the test with CD8+ T cells, the “Wells positive [%]” value is listed as “++++ (>=70% = ++++)”. Moreover, in the test with HLA-A*02, the Peptide exchange entry is given as “++++ (>75% = ++++)”.

As for “2 (SMLGEEIQL; listed as Homo sapiens) [compound 2]”, in the test with HLA-A*02, the Peptide exchange entry is “++++ (>75% = ++++)”.

For “3 (HLLEDIAHV; listed as Homo sapiens) [compound 3]”, the “Wells positive [%]” value with CD8+ T cells was “++ (20%-49% = ++)”. Besides, in the test with HLA-A*02, the Peptide exchange result is “++++ (>75% = ++++)”.

Turning to “4 (ALLTFVWKL; listed as Homo sapiens) [compound 4]”, the Peptide exchange entry with HLA-A*02 is on record as “++++ (>75% = ++++)”.

On to “5 (KIFSRLIYI; listed as Homo sapiens) [compound 5]”, for which the “Wells positive [%]” value in the test with CD8+ T cells is listed as “+++ (50%-69%= +++)”. Besides, the Peptide exchange entry with HLA-A*02 is reported as “+++ (>50 = +++)”.

Regarding “7 (TLLQVVGVVSV; listed as Homo sapiens) [compound 7]”, in the test with HLA-A*02, the Peptide exchange result is listed as “++ (>20% = ++)”.

With “9 (GMLNEAEGKAIKL; listed as Homo sapiens) [compound 9]”, in the test with HLA-A*02, the Peptide exchange result is given as “+++ (>50 = +++)”.

Consider “10 (TLWRGPVVV; listed as Homo sapiens) [compound 10]”, for which the Peptide exchange result with HLA-A*02 is reported as “+++ (>50 = +++)”.

Regarding “11 (YLEEECPAT; listed as Homo sapiens) [compound 11]”, the Peptide exchange entry with HLA-A*02 was “++ (>20% = ++)”.

For the substance “13 (AMAPNHAVV; listed as Homo sapiens) [compound 13]”, in the test with HLA-A*02, the Peptide exchange entry is listed as “+++ (>50 = +++)”.

Regarding “14 (KMDEASAQLL; listed as Homo sapiens) [compound 14]”, the Peptide exchange result with HLA-A*02 was “++ (>20% = ++)”.

Regarding “15 (KMDEASAQLLA; listed as Homo sapiens) [compound 15]”, the Peptide exchange result in the test with HLA-A*02 was “+++ (>50 = +++)”.

In the case of “16 (KMDEASAQL; listed as Homo sapiens) [compound 16]”, the Peptide exchange result in the test with HLA-A*02 is “+++ (>50 = +++)”.

Turning to “17 (RLGIKPESV; listed as Homo sapiens) [compound 17]”, in the test with CD8+ T cells, the donors result is “++++ (>=70% = ++++)” and the wells entry is “++ (20%-49% = ++)”.

Take “20 (SLLSHQVLL; listed as Homo sapiens) [compound 20]”: in the test with HLA-A*02, the Peptide exchange result was “+++ (>50 = +++)”.

As to “21 (YLNDSLRHV; listed as Homo sapiens) [compound 21]”, the Peptide exchange result with HLA-A*02 is “++ (>20% = ++)”.

Turning to “22 (SLYDSIAFI; listed as Homo sapiens) [compound 22]”, the Peptide exchange entry in the test with HLA-A*02 is recorded as “++++ (>75% = ++++)”.

For “24 (SYNDALLTF; listed as Homo sapiens) [compound 24]”, the “Wells positive [%]” value in the test on CD8+ T cells was “+++ (50%-69%= +++)”. The Peptide exchange entry in the test on HLA-A*24 was “+++ (>50 = +++)”.

Take “25 (IYEPYLAMF; listed as Homo sapiens) [compound 25]”: in the test on HLA-A*24, the Peptide exchange result is given as “+++ (>50 = +++)”.

On to “26 (RYADDTFTPAF; listed as Homo sapiens) [compound 26]”, for which, in the test with HLA-A*24, the Peptide exchange result is given as “+++ (>50 = +++)”.

Take “27 (GYLQGLVSF; listed as Homo sapiens) [compound 27]”: the “Wells positive [%]” value in the test on CD8+ T cells is on record as “++ (20%-49% = ++)”. Besides, the Peptide exchange result in the test with HLA-A*24 was “++++ (>75% = ++++)”.

For the substance “28 (YYAKEIHKF; listed as Homo sapiens) [compound 28]”, the Peptide exchange entry in the test on HLA-A*24 is listed as “++++ (>75% = ++++)”.

For “29 (RYGSPINTF; listed as Homo sapiens) [compound 29]”, in the test with CD8+ T cells, the donors result is reported as “+++ (50%-69% = +++)” and the wells result is reported as “+ (<20% = +)”. The Peptide exchange entry with HLA-A*24 is “+++ (>50 = +++)”.

Regarding “30 (SYSPAHARL; listed as Homo sapiens) [compound 30]”, the Peptide exchange result in the test on HLA-A*24 was “+++ (>50 = +++)”.

On to “31 (AYTSPPSFF; listed as Homo sapiens) [compound 31]”, for which the Peptide exchange entry with HLA-A*24 is listed as “+++ (>50 = +++)”.

As to “32 (PYQLNASLFTF; listed as Homo sapiens) [compound 32]”, the Peptide exchange result with HLA-A*24 is “++++ (>75% = ++++)”.

Take “33 (QYGKDFLTL; listed as Homo sapiens) [compound 33]”: the Peptide exchange result with HLA-A*24 was “+++ (>50 = +++)”.

Consider “34 (AFSPDSHYLLF; listed as Homo sapiens) [compound 34]”, for which, in the test with CD8+ T cells, the donors result was “+++ (50%-69% = +++)” and the wells result is “+ (<20% = +)”. Besides, the Peptide exchange result in the test with HLA-A*24 is listed as “+++ (>50 = +++)”.

Turning to “35 (IYTRVTYYL; listed as Homo sapiens) [compound 35]”, in the test on CD8+ T cells, the donors result is reported as “++++ (>=70% = ++++)” and the wells result is “++ (20%-49% = ++)”. For the same substance, in the test on HLA-A*24, the Peptide exchange result is “++ (>20% = ++)”.

For “36 (RYMWINQEL; listed as Homo sapiens) [compound 36]”, in the test on HLA-A*24, the Peptide exchange entry is listed as “+++ (>50 = +++)”.

“41 (RYLQKIEEF; listed as Homo sapiens) [compound 41]”: the Peptide exchange entry in the test with HLA-A*24 was “+++ (>50 = +++)”.

For the substance “42 (TYIGQGYII; listed as Homo sapiens) [compound 42]”, in the test with CD8+ T cells, the donors result was “++++ (>=70% = ++++)” and the wells result was “+ (<20% = +)”. Besides, the Peptide exchange entry in the test with HLA-A*24 was “+++ (>50 = +++)”.

With “43 (AYIKNGQLF; listed as Homo sapiens) [compound 43]”, in the test with HLA-A*24, the Peptide exchange result is “+++ (>50 = +++)”.

“44 (VYNTVSEGTHF; listed as Homo sapiens) [compound 44]”: the Peptide exchange result in the test on HLA-A*24 is “+++ (>50 = +++)”.

Take “45 (RYFKTPRKF; listed as Homo sapiens) [compound 45]”: in the test with HLA-A*24, the Peptide exchange entry is listed as “++ (>20% = ++)”.

Regarding “47 (SYTPVLNQF; listed as Homo sapiens) [compound 47]”, in the test on HLA-A*24, the Peptide exchange result was “++++ (>75% = ++++)”.

Take “48 (AWAPKPYHKF; listed as Homo sapiens) [compound 48]”: in the test on HLA-A*24, the Peptide exchange entry is given as “+++ (>50 = +++)”.

Consider “52 (ALGDLVQSV; listed as Homo sapiens) [compound 52]”, for which the Peptide exchange entry in the test with HLA-A*02 is on record as “+++ (>50 = +++)”.

For the substance “53 (YLLKDKGEYTL; listed as Homo sapiens) [compound 53]”, the Peptide exchange entry with HLA-A*02 was “+++ (>50 = +++)”.

Consider “54 (AYSEKVTEF; listed as Homo sapiens) [compound 54]”, for which the Peptide exchange result with HLA-A*24 is recorded as “+++ (>50 = +++)”.

For the substance “55 (LYFEKGEYF; listed as Homo sapiens) [compound 55]”, the Peptide exchange entry in the test on HLA-A*24 is recorded as “++++ (>75% = ++++)”.

As for “56 (LFHPEDTGQVF; listed as Homo sapiens) [compound 56]”, the Peptide exchange entry in the test with HLA-A*24 is “++ (>20% = ++)”.

Take “58 (GYIDKVRQL; listed as Homo sapiens) [compound 58]”: the Peptide exchange entry with HLA-A*24 was “++ (>20% = ++)”.

For the substance “59 (IYPDVTYAF; listed as Homo sapiens) [compound 59]”, the Peptide exchange result with HLA-A*24 is “+++ (>50 = +++)”.
